Assay results reported in US11007273B2, “Prochelators as targeted prodrugs for prostate cancer and methods of making and using same” (Duke University, priority 2017, dated 2021).
Non-standard residues stand in square brackets, D forms with d. Residues, ends and D or L forms follow the SMILES beside them. *: point of attachment. X1 = CCN(CC)C(=S)SCc1ccc(N*)cc1

Experiments:
GGT = GGT (Homo sapiens, UniProt P19440); assay: Competition experiments vs. γE-pNA for GGT; format: biochemical; conditions: vs E-pNA; PBS, pH 7.4, 1 mM GlyGly
Experimental: Competition experiments vs. γE-pNA for GGT: To perform the inhibition study, a serial dilution of γE-pNA was performed ranging from 1 mM to 3 μM in PBS with 1 mM Gly-Gly (dilution factor=0.5; pH 7.4; 10% DMSO; 100 μL) using a clear, flat bottom 96 well plate. GGT binding molecules, as indicated, were added to separate sets of triplicate wells to reach a final concentration of 10 and 100 μM. Before the addition of enzyme, the plate was cooled to 4° C. for 15 min. To initiate the assay, 10 μL of 50 U/L GGT was added to each well and an initial absorbance scan was performed. Subsequent scans were performed every 10 min for ˜2 h. In between each scan, the plates were stored at 37° C. in a humidified incubator to reduce solvent evaporation. The experiment was repeated in triplicate.
To probe the reactivity of Glu-DTC in comparison to the enzyme's natural substrate GSH, competition experiments were conducted against the colorimetric substrate L-glutamic acid γ-(p-nitroanilide) [E-pNA]. The colorimetric assay involves monitoring p-nitroaniline release by absorbance at 405 nm upon reaction of the probe substrate E-pNA with GGT in the presence of an inhibiting substrate, either Glu-DTC (FIG. 15A) or GSH (FIG. 15C).

22Rv1 cells = assay: cells; format: cell-based, human
Experimental: (§1) Antiproliferation assay: To determine the amount of Cu(II) required for cell studies a checkerboard assay was performed by varying the prodrug or drug concentration and Cu(II) concentration. 22RV1, LNCaP, PC3, MCF-7, and PWR-1E (5,000 cells/well) were seeded in 96-well plates with regular media (22Rv1, LNCaP, and PC-3 in RPMI with 10% FBS; MCF-7 in DMEM with 10% FBS; PWR-1E in Keratinocyte-SFM) and let adhere for 24 h. The following day, the media was replaced with serum free media and cells were treated as indicated for an additional 24 h or 72 h. Cell proliferation was measured using a fluorometric resazurin reduction method. 20 μL of 700 μM Resazurin (Sigma R7017) was added in each well and incubated at 37° C. for 2 h. Fluorescence at 580 nm was measured by exciting at 555 nm with a plate reader. Each experiment was performed in triplicate, and the experiments were repeated three times. Viability vs drug concentration plot from a representative experiment are shown with standard deviation from the experiment as error bar. The error bar in IC50 values represents standard deviation from three different experiments.

LNCaP cells = assay: cells; format: cell-based, human
Experimental: as §1

MCF-7 cells = assay: cells; format: cell-based, human
Experimental: as §1

PC-3 cells = assay: cells; format: cell-based, human
Experimental: as §1

PWR-1E cells = assay: cells; format: cell-based, human
Experimental: as §1

PSA enzyme = PSA enzyme (Homo sapiens, UniProt P07288); assay: In vitro cleavage by PSA enzyme (LC trace); format: biochemical; conditions: 20 μg/mL of PSA
Experimental: (§2) It is hypothesized that the […] enzyme cleaves the peptide bond between Tyr and Ser. The cleaved products are shown in Scheme 2. When treated with 20 μg/mL of PSA, PSA-DTC was completely converted to products within 6 h (FIG. 6A).

aminopeptidases = assay: Further treatment with aminopeptidases (DTC release); format: biochemical; conditions: after PSA treatment
Experimental: as §2

[1] = format: in vitro ADME, human
Experimental: Conditioned media from prostate cancer cell line, LNCaP, was used to test the cleavage of prodrug. […] Since DTC is not observed in the UV or mass spectrometer, Cu(II) was added before recording mass spectra to visualize the release of DTC. Cu(DTC)2 complex was observed indicating the release of DTC. PSA-DTC was completely cleaved within 4 h.

Sequence of PSA enzyme (P07288 25-261): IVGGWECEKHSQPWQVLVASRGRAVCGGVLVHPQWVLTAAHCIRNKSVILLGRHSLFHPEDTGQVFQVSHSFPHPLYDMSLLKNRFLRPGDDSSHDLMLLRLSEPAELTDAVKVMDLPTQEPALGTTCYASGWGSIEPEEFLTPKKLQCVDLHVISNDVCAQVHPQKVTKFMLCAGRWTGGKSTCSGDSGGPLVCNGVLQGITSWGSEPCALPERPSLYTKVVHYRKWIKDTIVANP
Sequence of GGT (P19440 whole entry, species assumed): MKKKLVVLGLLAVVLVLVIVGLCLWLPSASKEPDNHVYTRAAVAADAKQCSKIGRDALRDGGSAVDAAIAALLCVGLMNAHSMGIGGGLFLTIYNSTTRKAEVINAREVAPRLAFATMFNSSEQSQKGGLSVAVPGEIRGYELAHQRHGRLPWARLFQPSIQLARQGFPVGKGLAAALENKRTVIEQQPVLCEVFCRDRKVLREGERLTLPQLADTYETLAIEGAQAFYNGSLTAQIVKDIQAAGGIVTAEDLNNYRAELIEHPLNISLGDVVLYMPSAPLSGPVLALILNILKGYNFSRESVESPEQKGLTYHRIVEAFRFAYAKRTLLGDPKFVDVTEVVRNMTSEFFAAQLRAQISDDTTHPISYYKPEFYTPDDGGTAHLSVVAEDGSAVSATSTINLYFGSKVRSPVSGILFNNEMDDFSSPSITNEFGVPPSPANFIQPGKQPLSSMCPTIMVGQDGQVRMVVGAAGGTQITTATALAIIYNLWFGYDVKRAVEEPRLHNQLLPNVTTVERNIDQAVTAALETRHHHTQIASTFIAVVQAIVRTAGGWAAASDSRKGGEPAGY

| Ki (GGT) [µM] | IC50 (22Rv1 cells) [µM] | IC50 (LNCaP cells) [µM] | IC50 (MCF-7 cells) [µM] | IC50 (PC-3 cells) [µM] | IC50 (PWR-1E cells) [µM] | Structure (SMILES) | antiproliferative activity in checker board assay with Cu (LNCaP cells; LNCaP, varying Cu and prodrug, within 24 h (dPSA-DTC: even after 72 h)) | time to complete conversion to products (PSA enzyme) [h] | release of DTC on treatment with aminopeptidases (aminopeptidases) | time to complete cleavage [1] [h] |
| --- | --- | --- | --- | --- | --- | --- | --- | --- | --- | --- |
| 99 ± 7 | – | – | – | – | – | N[C@@H](CCC(=O)N[C@@H](CS)C(=O)NCC(=O)O)C(=O)O [GSH, glutathione, reference compound] | – | – | – | – |
| – | 0.77 | 0.39 | 0.33 | 0.49 | 0.5 | CCN(CC)C(=S)SCc1ccc(NC(=O)[C@@H](CC(C)C)NC(=O)[C@@H](CO)NC(=O)[C@@H](Cc2ccc(O)cc2)NC(=O)[C@@H](Cc2ccc(O)cc2)NC(=O)[C@@H](CO)NC(=O)[C@@H](CO)NC(=O)[C@H](N)CCCNC(=N)N)cc1 [PSA-DTC] (H-[dR][dS][dS][dY][dY][dS][dL]-X1) | showed antiproliferative activity in the presence of Cu | ≤ 6 | led to the release of DTC | ≤ 4 |
